Results on 22 compounds are retold here after patent US8486966B2, “9-(pyrazol-3-yl)-9H-purine-2-amine and 3-(pyrazol-3-yl) -3H-imidazo[4,5-B] pyridin-5-amine derivatives and their use for the treatment of cancer” (Astrazeneca AB, priority 2007, dated 2013).

human Trk A kinase, sequence (P04629 442-796): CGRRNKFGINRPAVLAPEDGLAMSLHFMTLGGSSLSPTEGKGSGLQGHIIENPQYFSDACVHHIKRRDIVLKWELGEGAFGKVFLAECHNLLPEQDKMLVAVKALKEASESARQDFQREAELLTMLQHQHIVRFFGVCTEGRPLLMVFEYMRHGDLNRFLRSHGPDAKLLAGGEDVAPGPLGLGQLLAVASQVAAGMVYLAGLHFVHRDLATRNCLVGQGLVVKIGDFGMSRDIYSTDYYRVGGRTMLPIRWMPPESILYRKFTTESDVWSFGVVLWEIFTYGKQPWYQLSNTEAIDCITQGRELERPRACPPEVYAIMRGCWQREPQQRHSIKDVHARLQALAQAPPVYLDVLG
human JAK2, sequence (O60674 808-1132 limits assumed): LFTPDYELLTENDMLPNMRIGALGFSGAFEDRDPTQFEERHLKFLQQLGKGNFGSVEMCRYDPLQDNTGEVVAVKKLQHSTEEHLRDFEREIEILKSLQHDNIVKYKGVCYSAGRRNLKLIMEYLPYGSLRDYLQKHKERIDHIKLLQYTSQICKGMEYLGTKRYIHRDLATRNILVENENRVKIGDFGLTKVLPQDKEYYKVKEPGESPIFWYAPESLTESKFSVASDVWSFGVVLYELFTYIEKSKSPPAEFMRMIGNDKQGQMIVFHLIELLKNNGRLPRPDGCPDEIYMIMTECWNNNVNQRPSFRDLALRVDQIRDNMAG

In one test the target is human Trk A kinase (Homo sapiens (Human), UniProt P04629). The test can be described thus: Trk A kinase Alphascreen assay. In kind it is biochemical. The note with it: 0.838 ng/ml Trk A, 70 μM ATP, 20 minutes, room temperature; read-out: Trk inhibitory activity IC50. The method, then:
Trk A kinase activity was determined by measuring the kinase's ability to phosphorylate synthetic tyrosine residues within a generic polypeptide substrate using an Amplified Luminescent Proximity Assay (Alphascreen) technology (PerkinElmer, 549 Albany Street, Boston, Mass.).
To measure Trk A kinase activity, the intracellular domain of a HIS-tagged human Trk A kinase (amino acids 442-796 of Trk A, Swiss-Prot Primary Accession Number P04629) may be expressed in SF9 cells and purified using standard nickel column chromatography. After incubation of the kinase with a biotinylated substrate and adenosine triphosphate (ATP) for 20 minutes at room temperature, the kinase reaction may be stopped by the addition of 30 mM ethylenediaminetetraacetic acid (EDTA). The reaction may be performed in 384 well microtitre plates and the reaction products may be detected with the addition of strepavidin coated Donor Beads and phosphotyrosine-specific antibodies coated Acceptor Beads using the EnVision Multilabel Plate Reader after an overnight incubation at room temperature.
For orientation: Bead proximity is the source of the signal in Alpha formats.
Take `CC(C)Oc1cc(-n2cnc3ccc(N[C@@H](C)c4ccc(F)cn4)nc32)n[nH]1` [Example 1, N-[(1S)-1-(5-fluoropyridin-2-yl)ethyl]-3-(5-isopropoxy-1H-pyrazol-3-yl)-3H-imidazo[4,5-b]pyridin-5-amine]: the IC50 amounted to 3 nM.

With `C[C@H](Nc1ccc2ncn(-c3cc(C4CC4)[nH]n3)c2n1)c1ccc(F)cn1` [Example 2, 3-(5-Cyclopropyl-1H-pyrazol-3-yl)-N-[(1S)-1-(5-fluoropyridin-2-yl)ethyl]-3H-imidazo[4,5-b]pyridin-5-amine], the IC50 came out at 3 nM.

As to `C[C@H](Nc1ncc2ncn(-c3cc(C4CC4)[nH]n3)c2n1)c1ncc(F)cn1` [Example 4, 9-(5-Cyclopropyl-1H-pyrazol-3-yl)-N-[(1S)-1-(5-fluoropyrimidin-2-yl)ethyl]-9H-purin-2-amine], the IC50 turned out to be 12 nM. Still for that read-out and setting: the same measure for `C[C@H](Nc1ncc2ncn(-c3cc(C4CC4)[nH]n3)c2n1)c1ccc(F)cn1` [Example 5, 9-(5-Cyclopropyl-1H-pyrazol-3-yl)-N-[(1S)-1-(5-fluoropyridin-2-yl)ethyl]-9H-purin-2-amine]: 5 nM; for `CC(C)Oc1cc(-n2cnc3ccc(N[C@@H](C)c4ncc(F)cn4)nc32)n[nH]1` [Example 6, N-[(1S)-1-(5-Fluoropyrimidin-2-yl)ethyl]-3-(5-isopropoxy-1H-pyrazol-3-yl)-3H-imidazo[4,5-b]pyridin-5-amine]: 3 nM. Still for that read-out and setting: the figure for `CC(C)Oc1cc(-n2cnc3ccc(N[C@@H](CO)c4ccc(F)cn4)nc32)n[nH]1` [Example 7, (2R)-2-(5-Fluoropyridin-2-yl)-2-{[3-(5-isopropoxy-1H-pyrazol-3-yl)-3H-imidazo[4,5-b]pyridin-5-yl]amino}ethanol] is 3 nM; for `CCOc1cc(-n2cnc3ccc(N[C@@H](CO)c4ccc(F)cn4)nc32)n[nH]1` [Example 8, (2R)-2-{[3-(5-Ethoxy-1H-pyrazol-3-yl)-3H-imidazo[4,5-b]pyridin-5-yl]amino}-2-(5-fluoropyridin-2-yl)ethanol] it is 3 nM. The same measure, in the same setting: the figure for `CCOc1cc(-n2cnc3ccc(N[C@@H](C)c4ncc(F)cn4)nc32)n[nH]1` [Example 9, 3-(5-Ethoxy-1H-pyrazol-3-yl)-N-[(1S)-1-(5-fluoropyrimidin-2-yl)ethyl]-3H-imidazo[4,5-b]pyridin-5-amine] is 3 nM; for `CCOc1cc(-n2cnc3ccc(N[C@@H](C)c4ccc(F)cn4)nc32)n[nH]1` [Example 10, 3-(5-Ethoxy-1H-pyrazol-3-yl)-N-[(1S)-1-(5-fluoropyridin-2-yl)ethyl]-3H-imidazo[4,5-b]pyridin-5-amine] it is 3 nM; for `CC(C)Oc1cc(-n2cnc3cnc(N[C@@H](C)c4ccc(F)cn4)nc32)n[nH]1` [Example 11, N-[(1S)-1-(5-Fluoropyridin-2-yl)ethyl]-9-(5-isopropoxy-1H-pyrazol-3-yl)-9H-purin-2-amine] it is 3 nM.

Take `CC(C)Oc1cc(-n2cnc3cnc(N[C@@H](C)c4ncc(F)cn4)nc32)n[nH]1` [Example 12, N-[(1S)-1-(5-Fluoropyrimidin-2-yl)ethyl]-9-(5-isopropoxy-1H-pyrazol-3-yl)-9H-purin-2-amine]: the IC50 was 3 nM. Same read-out and setting: the same measure for `CC[C@H](Nc1ccc2ncn(-c3cc(OC(C)C)[nH]n3)c2n1)c1ccc(F)cn1` [Example 13, N-[(1S)-1-(5-Fluoropyridin-2-yl)propyl]-3-(5-isopropoxy-1H-pyrazol-3-yl)-3H-imidazo[4,5-b]pyridin-5-amine]: 6 nM. On the same count and under the same terms, the same measure for `CC(C)Oc1cc(-n2cnc3cc(Cl)c(N[C@@H](C)c4ccc(F)cn4)nc32)n[nH]1` [Example 14, 6-Chloro-N-[(1S)-1-(5-fluoropyridin-2-yl)ethyl]-3-(5-isopropoxy-1H-pyrazol-3-yl)-3H-imidazo[4,5-b]pyridin-5-amine]: 4 nM. The same measure, in the same setting: the figure for `Cc1cc(-n2cnc3cc(F)c(N[C@@H](C)c4ncc(F)cn4)nc32)n[nH]1` [Example 15, 6-Fluoro-N-[(1S)-1-(5-fluoropyrimidin-2-yl)ethyl]-3-(5-methyl-1H-pyrazol-3-yl)-3H-imidazo[4,5-b]pyridin-5-amine] is 3810 nM; for `Cc1cc(-n2cnc3ccc(N[C@@H](C)c4ncc(F)cn4)nc32)n[nH]1` [Example 16, N-[(1S)-1-(5-Fluoropyrimidin-2-yl)ethyl]-3-(5-methyl-1H-pyrazol-3-yl)-3H-imidazo[4,5-b]pyridin-5-amine] it is 61 nM. As to `Cc1cc(-n2cnc3ccc(N[C@@H](C)c4ccc(F)cn4)nc32)n[nH]1` [Example 17, N-[(1S)-1-(5-Fluoropyridin-2-yl)ethyl]-3-(5-methyl-1H-pyrazol-3-yl)-3H-imidazo[4,5-b]pyridin-5-amine], the half-inhibitory concentration (IC50) was determined as 14 nM. On the same count and under the same terms, the figure for `Cc1cc(-n2cnc3cnc(N[C@@H](C)c4ccc(F)cn4)nc32)n[nH]1` [Example 18, N-[(1S)-1-(5-Fluoropyridin-2-yl)ethyl]-9-(5-methyl-1H-pyrazol-3-yl)-9H-purin-2-amine] is 311 nM; for `Cc1cc(-n2cnc3c(C(=O)N4CCOCC4)nc(N[C@@H](C)c4ncc(F)cn4)nc32)n[nH]1` [Example 19, N-[(1S)-1-(5-Fluoropyrimidin-2-yl)ethyl]-9-(5-methyl-1H-pyrazol-3-yl)-6-(morpholin-4-ylcarbonyl)-9H-purin-2-amine] it is 7250 nM; for `Cc1cc(-n2cnc3c(NC4CCOCC4)nc(N[C@@H](C)c4ccc(F)cn4)nc32)n[nH]1` [Example 20, N^2-[(1S)-1-(5-Fluoropyridin-2-yl)ethyl]-9-(5-methyl-1H-pyrazol-3-yl)-N^6-(tetrahydro-2H-pyran-4-yl)-9H-purine-2,6-diamine] it is 475 nM. Same read-out and setting: the figure for `COc1nc(N[C@@H](C)c2ccc(F)cn2)nc2c1ncn2-c1cc(C)[nH]n1` [Example 21, N-[(1S)-1-(5-Fluoropyridin-2-yl)ethyl]-6-methoxy-9-(5-methyl-1H-pyrazol-3-yl)-9H-purin-2-amine] is 96 nM; for `Cc1cc(-n2cnc3c(N4CCOCC4)nc(N[C@@H](C)c4ccc(F)cn4)nc32)n[nH]1` [Example 22, N-[(1S)-1-(5-Fluoropyridin-2-yl)ethyl]-9-(5-methyl-1H-pyrazol-3-yl)-6-morpholin-4-yl-9H-purin-2-amine] it is 773 nM; for `CCOc1cc(-n2cnc3ccc(N[C@@H](CC)c4ccc(F)cn4)nc32)n[nH]1` [Example 23, 3-(5-Ethoxy-1H-pyrazol-3-yl)-N-[(1S)-1-(5-fluoropyridin-2-yl)propyl]-3H-imidazo[4,5-b]pyridin-5-amine] it is 3 nM.

For a further test, the target named is human JAK2 (Homo sapiens (Human), UniProt O60674). The test can be described thus: JAK2 kinase Alphascreen assay. The test is classed as biochemical. The note with it: 150 pM JAK2 enzyme, 15 μM ATP, 60 minutes, room temperature; read-out: JAK inhibitory activity IC50. The method, then:
JAK2 kinase activity was determined by measuring the kinase's ability to phosphorylate synthetic tyrosine residues within a generic polypeptide substrate using an Amplified Luminescent Proximity Assay (Alphascreen) technology (PerkinElmer, 549 Albany Street, Boston, Mass.).
To measure JAK2 kinase activity, a commercially available purified enzyme may be used. The enzyme may be a C-terminal His6-tagged, recombinant, human JAK2, amino acids 808-end, (Genbank Accession number NM 004972) expressed by baculovirus in Sf21 cells (Upstate Biotechnology MA). After incubation of the kinase with a biotinylated substrate and adenosine triphosphate (ATP) for 60 minutes at room temperature, the kinase reaction may be stopped by the addition of 30 mM ethylenediaminetetraacetic acid (EDTA). The reaction may be performed in 384 well microtitre plates and the reaction products may be detected with the addition of streptavidin coated Donor Beads and phosphotyrosine-specific antibodies coated Acceptor Beads using the EnVision Multilabel Plate Reader after an overnight incubation at room temperature.
Take `Cc1cc(-n2cnc3ccc(N[C@@H](C)c4ccc(F)cn4)nc32)n[nH]1` [Example 17, N-[(1S)-1-(5-Fluoropyridin-2-yl)ethyl]-3-(5-methyl-1H-pyrazol-3-yl)-3H-imidazo[4,5-b]pyridin-5-amine]: the IC50 was 3 nM.

A word on the IC50: it is the concentration that inhibits the measured activity by half.
